Source: patent publication US10501748B2, “Methods and compositions for integration of an exogenous sequence within the genome of plants” (Dow AgroSciences LLC, priority 2013, dated 2019)

Assays:
[1] = tested on: scutella of wild-type cv. Bobwhite MPB26RH (P197/P197); assay: basal tolerance to sulfometuron methyl at the callus induction stage; assay type: cell-based, Triticum aestivum; conditions: 100 nM, 4 weeks, compared to untreated samples
Protocol: A series of experiments were performed to determine optimal selection conditions for regenerating wheat plants expressing the AHAS (P197S) mutation conferring tolerance to sulfonylurea class herbicides. These experiments were based on testing the basal tolerance of the wild-type donor wheat line cv. Bobwhite MPB26RH (P197/P197 genotype, which confers susceptibility to sulfonylureas) at the callus induction, plant regeneration and rooting stages of an established wheat transformation system. Similar experiments were performed to determine the basal tolerance of transgenic cv. Bobwhite MPB26RH events that had randomly integrated T-DNA expressing the AHAS (P197S) mutation, which confers tolerance to sulfonylurea selection agents.
The basal tolerance of the wild-type donor wheat line to sulfometuron methyl at the callus induction stage was determined as follows: scutella of immature zygotic embryos were isolated, as previously described in Example 4, and placed in 10 cm petri dishes containing CIM medium supplemented with 0, 100, 500, 1000, 1500 and 2000 nM sulfometuron methyl, respectively. Twenty scutella were placed in each petri dish. A total of 60 scutella were tested at each sulfometuron methyl concentration. After incubation at 24° C. in the dark for 4 weeks, the amount of somatic embryogenic callus formation (SEC) at each sulfometuron methyl concentration was recorded. […]

[2] = tested on: transgenic wheat events with low-copy T-DNA expressing AHAS (P197S); assay: basal tolerance to sulfometuron methyl at the rooting stage of transgenic AHAS (P197S) events; assay type: in vivo, Triticum aestivum; conditions: transgenic AHAS (P197S) events from pDAS000164; 400-600 nM; 2 weeks
Protocol: The basal tolerance of transgenic wheat events with randomly integrated, low-copy (≤3) T-DNA expressing the AHAS (P197S) mutation to sulfometuron methyl from pDAS000164 at the plant rooting stage was determined as follows: four independent transgenic events were randomly selected and multiplied in vitro by sub-culturing on multiplication medium. Following multiplication, plants for each event were transferred to 10 cm petri dishes containing RM medium supplemented with 0, 400, 450, 500, 550 and 600 nM sulfometuron methyl, respectively. Four plants (one from each of the four events) were placed in each petri dish. A total of 3 plants per event were tested for basal tolerance at each sulfometuron methyl concentration. After incubation for 2 weeks at 24° C. under a 16/8 (light/dark) hour photoperiod in a growth room, the root formation response was recorded.

[3] = tested on: somatic embryogenic callus of wild-type cv. Bobwhite MPB26RH; assay: basal tolerance to sulfometuron methyl at the plant regeneration stage; assay type: cell-based, Triticum aestivum; conditions: wild-type donor wheat line; 2000 nM; 2 weeks; compared to untreated samples
Protocol: The basal tolerance of the wild-type donor wheat line to sulfometuron methyl at the plant regeneration stage was determined as follows: scutella of immature zygotic embryos from the donor wheat line were isolated and placed in 10 cm petri dishes containing CIM medium. Then SEC was allowed to form by incubating at 24° C. in the dark for 4 weeks. The SEC was transferred to 10 cm petri dishes containing DRM medium supplemented with 0, 100, 500, 1000, 1500, 2000, 2500 and 3000 nM sulfometuron methyl, respectively. Twenty CIM were placed in each petri dish. A total of 60 CIM were tested for basal tolerance response at each sulfometuron methyl concentration. After incubation for 2 weeks at 24° C. under a 16/8 (light/dark) hour photoperiod in a growth room, the regeneration response was recorded.

[4] = tested on: regenerated plants of wild-type cv. Bobwhite MPB26RH; assay: basal tolerance to sulfometuron methyl at the plant rooting stage; assay type: in vivo, Triticum aestivum; conditions: wild-type donor wheat line; 3 weeks
Protocol: The basal tolerance of the wild-type donor wheat line to sulfometuron methyl at the plant rooting stage was determined as follows: scutella of immature zygotic embryos were isolated and placed in 10 cm petri dishes containing CIM medium. Then SEC was allowed to form by incubating at 24° C. in the dark for 4 weeks. The SEC was transferred to 10 cm petri dishes containing DRM medium and incubated for 2 weeks at 24° C. under a 16/8 (light/dark) hour photoperiod to allow plant regeneration to take place. Regenerated plants were transferred to 10 cm petri dishes containing RM medium supplemented with 0, 100, 200, 250, 300, 400, 500, 1000 and 2000 nM sulfometuron methyl, respectively. Ten regenerated plants were placed in each petri dish. A total of 30 regenerated plants were tested for basal tolerance response at each sulfometuron methyl concentration. After incubation for 3 weeks at 24° C. under a 16/8 (light/dark) hour photoperiod in a growth room, the root formation response was recorded.

[5] = tested on: protoplasts of SEC-derived cell suspension culture of cv. Bobwhite MPB26RH; assay: basal tolerance to BASTA of protoplast agarose bead-type cultures (calli growth); assay type: cell-based, Triticum aestivum; conditions: 2 weeks
Text: BASTA® selection conditions are optimized using protoplasts derived from somatic embryogenic callus (SEC)-derived cell suspension culture of the wheat line cv. Bobwhite MPB26RH. While protoplasts derived from Bobwhite MPB26RH are non-totipotent (i.e., cannot be used to regenerate entire plants), the selection conditions established for enriching the events that express the PAT gene are expected to be transferable to any protoplast-based transformation system based on a totipotent wheat genotype. The experiments are conducted, and the basal tolerance of the wild-type donor wheat line cv. Bobwhite MPB26RH to BASTA® is established. The use of BASTA® selection conditions stronger than basal tolerance are identified and used to select for transformed cells expressing the PAT gene.
Protoplasts are isolated from an established SEC-derived cell suspension culture and used to establish agarose bead-types cultures, as described previously. The basal tolerance of wheat line cv. Bobwhite MPB26RH to BASTA® is determined by incubating the agarose bead-type cultures in media supplemented with 0, 0.5, 2.5, 5, 7.5, 10, 20, 30, 40 and 50 mg/L BASTA® and assessing the rate of calli growth after 2 weeks. The BASTA® concentrations (e.g., higher than 20 mg/L) that severely impeded calli development are optimal for enriching and selecting wheat cells having the PAT gene.

Structure (SMILES) | reduction of SEC formation [1] | root formation compared to untreated controls [2] | reduction of plant regeneration [3] | concentrations at which root formation was severely inhibited [4] | concentrations that severely impeded calli development [5]
COC(=O)c1ccccc1S(=O)(=O)NC(=O)Nc1nc(C)cc(C)n1 [sulfometuron methyl] | about 70% | not restricted | about 80% | higher than 400 nM | 
CP(=O)(O)CCC(N)C(=O)O (racemic) [BASTA, DL-Phosphinothricin] |  |  |  |  | higher than 20 mg/L
